ChEMBL document CHEMBL1147505, “Efficient and chemoselective N-acylation of 10-amino-7-ethyl camptothecin with poly(ethylene glycol)” (2004)
Residues, ends and D or L forms follow the SMILES beside them. *: point of attachment. X2 = CCc1c2c(nc3ccc(N*)cc13)-c1cc3c(c(=O)n1C2)COC(=O)[C@]3(O)CC; X1 = COCCOC(=O)*

Legend:
[1] = species: Mus musculus; test: Survival rate was determined as the ratio of mean survival days of treated group of mice to that of control group; format: functional
[2] = system: Mus musculus; test: Survival time of CDF1 mice inoculated with leukemia P388 cells determined after 40 days of intravenous administration of compound at 20 mg/kg on days 1, 5 and 9; format: functional

SMILES	T/C [1] [%]	Survival time [2] [days]
CCc1c2c(nc3ccc(NC(=O)CNC(=O)[C@H](Cc4ccccc4)NC(=O)[C@H](CC(C)C)NC(=O)CNC(=O)OCCOC)cc13)-c1cc3c(c(=O)n1C2)COC(=O)[C@]3(O)CC (X1-GLFG-X2)	170	13
COc1cccc2c1C(=O)c1c(O)c3c(c(O)c1C2=O)C[C@@](O)(C(=O)CO)C[C@@H]3O[C@H]1C[C@H](N)[C@H](O)[C@H](C)O1 [DOXORUBICIN]	>183	>14
CCc1c2c(nc3ccc(OC(=O)N4CCC(N5CCCCC5)CC4)cc13)-c1cc3c(c(=O)n1C2)COC(=O)[C@]3(O)CC [IRINOTECAN]	172	
